Key:
PCSK9 = PCSK9 (Homo sapiens, UniProt Q8NBP7); experiment: BODIPY-LDL uptake assay in HepG2 cells; format: cell-based; settings: 5 μg/ml PCSK9, BODIPY-LDL
Procedure, shortened: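 Compounds pre-incubated 60 min with 5 μg/ml PCSK9 (0.2% DMSO), then added to HepG2 cells for 16 h; 1 μg/ml BODIPY-LDL added in serum-free medium for 5 h. Fluorescence (Ex 485/Em 520 nm) normalized to protein; PCSK9-only wells = 0%, no-PCSK9 wells = 100% uptake, giving percent increase in LDL uptake.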

High Fat Diet C57 Mice = experiment: LDL-C lowering activity in high fat diet C57 mice; format: in vivo; settings: Mus musculus, po, 168 h; C57 mice on high fat diet; 30 mg/Kg orally once a day, 7 days treatment, blood on day 7; read-out: % Change Vs Vehicle Control in LDLc
Procedure: LDL-C Lowering Activity—in High Fat Diet C57 Mice
The in-vivo LDL-c lowering for test compound was tested in C57 mice which were kept on high fat diet for 4 weeks and the blood was collected by retro-orbital sinus puncture method under light ether anesthesia on day 0 (pretreatment). Animal are grouped based on LDL-c levels, after that 7 days treatment with vehicle or test compound orally at a dose of 30 mpk dose once a day was given. On completion of treatment on day 7 of the treatment the blood was collected for LDL-c and TC levels measurement.

Sequence of PCSK9 (Q8NBP7 153-692): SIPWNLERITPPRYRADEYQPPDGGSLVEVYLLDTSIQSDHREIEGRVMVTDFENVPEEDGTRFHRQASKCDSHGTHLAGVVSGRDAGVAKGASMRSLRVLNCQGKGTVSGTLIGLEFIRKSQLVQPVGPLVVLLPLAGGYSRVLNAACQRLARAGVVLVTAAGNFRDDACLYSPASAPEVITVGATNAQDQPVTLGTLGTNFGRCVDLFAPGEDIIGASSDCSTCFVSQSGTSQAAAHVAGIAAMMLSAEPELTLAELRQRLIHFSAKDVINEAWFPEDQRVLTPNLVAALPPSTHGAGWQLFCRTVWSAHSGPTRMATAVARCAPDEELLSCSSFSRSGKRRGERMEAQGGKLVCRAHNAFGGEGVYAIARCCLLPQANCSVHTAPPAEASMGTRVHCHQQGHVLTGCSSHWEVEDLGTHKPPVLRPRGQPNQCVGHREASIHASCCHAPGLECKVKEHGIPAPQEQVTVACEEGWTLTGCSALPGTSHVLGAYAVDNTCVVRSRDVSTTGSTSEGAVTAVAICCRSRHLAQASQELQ

## O=C(c1ccc(C2(O)COC2)cc1)N1CCN(c2ccc(C(F)(F)F)cc2)CC1 [Example 6, (4-(3-hydroxyoxetan-3-yl)phenyl)(4-(4-(trifluoromethyl)phenyl)piperazin-1-yl)methanone]
PCSK9; 1 μM test compound
  % increase in LDL Uptake: 0%
PCSK9; 10 μM test compound
  % increase in LDL Uptake: 106%
PCSK9; 30 μM test compound
  % increase in LDL Uptake: 179%
High Fat Diet C57 Mice
  change in vivo at 30 mg/kg: 0.6 ± 9%

— patent US20230089247A1, “NOVEL COMPOUNDS SUITABLE FOR THE TREATMENT OF DYSLIPIDEMIA” (ZYDUS LIFESCIENCES LIMITED, priority 2019, published 2023)
